Test systems include CCRF-CEM leukemia; SK-MEL-5 melanoma; OVCAR-5 ovarian; MCF7 breast; TK-10 renal; MDA-N; M14 melanoma; NCI-H23 lung; HL-60(TB) leukemia.
Common to all, as to test: NCI tumour cell line growth inhibition, 48 h

SMILES strings stand for the structures.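 Values below derive from 48-hour exposures of cells grown in 96-well plates, with endpoints linearly interpolated between the two concentrations bracketing the appropriate inhibition level. The concentration for full growth arrest is given as TGI.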

For `COc1ccc(/C=N/n2cnc3[nH]c(C)c(Cc4ccccc4)c3c2=N)cc1`, the TGI in the assay with CCRF-CEM leukemia, with SK-MEL-5 melanoma, in the assay with OVCAR-5 ovarian, in the assay with MCF7 breast, in the assay on TK-10 renal and with MDA-N was above 100 µM in each case. The TGI in the assay on M14 melanoma, in the assay with NCI-H23 lung and with HL-60(TB) leukemia was above 100 µM in each case.
For the molecule `Cc1nc2c(=S)n(C)ncc2[nH]1`, the TGI in the assay with CCRF-CEM leukemia, in the assay with SK-MEL-5 melanoma, in the assay on OVCAR-5 ovarian, with MCF7 breast, in the assay with TK-10 renal and in the assay with MDA-N was above 100 µM each time. For the same molecule, the TGI in the assay with M14 melanoma, with NCI-H23 lung and in the assay on HL-60(TB) leukemia was above 100 µM in each case.
As to `C[C@H]1S[C@H](c2c(Cl)cccc2Cl)N2Cc3ccccc3N=C12`, the TGI in the assay with CCRF-CEM leukemia is above 100 µM; in the assay on SK-MEL-5 melanoma it was 23.3 µM; with OVCAR-5 ovarian it was 37.5 µM; in the assay on MCF7 breast, 42.1 µM; in the assay with TK-10 renal, 41.9 µM; in the assay on MDA-N, above 100 µM. Further, the values for the TGI with M14 melanoma, in the assay on NCI-H23 lung and in the assay on HL-60(TB) leukemia were 32.4 µM, 28.8 µM and above 100 µM, respectively.
As for `COC(=O)c1ccc(Nc2nc3nc[nH]c3c(=O)[nH]2)cc1`, the TGI in the assay with CCRF-CEM leukemia, in the assay on SK-MEL-5 melanoma, with OVCAR-5 ovarian, in the assay with MCF7 breast, with TK-10 renal and with MDA-N was above 100 µM in each case. Also, the TGI in the assay with M14 melanoma, in the assay on NCI-H23 lung and in the assay on HL-60(TB) leukemia was above 100 µM each time.
In the case of `COc1cc(C2c3cc4c(cc3OC(N3CCNCC3)C2C)OCO4)cc(OC)c1OC` (stereo not given), the TGI with CCRF-CEM leukemia is 17.7 µM; in the assay with SK-MEL-5 melanoma, 4.03 µM; with OVCAR-5 ovarian it was above 100 µM; with MCF7 breast, 66.1 µM; in the assay with TK-10 renal, above 100 µM; in the assay on MDA-N it was 0.652 µM. Also, the TGI is 20 µM in the assay on M14 melanoma, above 100 µM in the assay on NCI-H23 lung and 0.929 µM in the assay on HL-60(TB) leukemia.
Regarding `COc1cc(N(Cc2ccc3oc(=O)c(-c4ccccc4)nc3c2)Cc2ccc3oc(=O)c(-c4ccccc4)nc3c2)cc(OC)c1OC`, the TGI in the assay with CCRF-CEM leukemia, in the assay on SK-MEL-5 melanoma, with OVCAR-5 ovarian, in the assay on MCF7 breast, with TK-10 renal and in the assay with MDA-N was above 10 µM in each case. The TGI in the assay on M14 melanoma, with NCI-H23 lung and with HL-60(TB) leukemia was above 10 µM throughout.
For `O=C1Nc2ccccc2/C1=c1\[nH]c(=O)/c(=C\c2ccc(OCc3ccccc3)cn2)[nH]c1=O`, the TGI with CCRF-CEM leukemia was above 100 µM; with SK-MEL-5 melanoma it was above 100 µM; in the assay on OVCAR-5 ovarian it was above 100 µM; with MCF7 breast, above 100 µM; with TK-10 renal, 50.1 µM; in the assay on MDA-N, above 100 µM. Moreover, the TGI in the assay with M14 melanoma, in the assay on NCI-H23 lung and in the assay on HL-60(TB) leukemia was above 100 µM each time.
On to `CC(C)(C)N(Cc1ccc2c(c1)OCO2)C(=O)/C=C\Sc1ccccc1`, for which the TGI in the assay on CCRF-CEM leukemia, in the assay with SK-MEL-5 melanoma, in the assay on OVCAR-5 ovarian, in the assay on MCF7 breast, in the assay on TK-10 renal and in the assay on MDA-N was above 100 µM in each case. Further, the TGI with M14 melanoma, in the assay on NCI-H23 lung and in the assay with HL-60(TB) leukemia was above 100 µM throughout.
In the case of `C[C@@H]1S[C@H](c2c(Cl)cccc2Cl)N2Cc3ccccc3N=C12`, the TGI in the assay with CCRF-CEM leukemia, in the assay on SK-MEL-5 melanoma, in the assay on OVCAR-5 ovarian, with MCF7 breast, in the assay on TK-10 renal and in the assay with MDA-N was above 100 µM in each case. For the same molecule, the TGI with M14 melanoma, with NCI-H23 lung and with HL-60(TB) leukemia was above 100 µM in each case.
As for `NC(Cc1ccc(S(=O)(=O)O)cc1)C(=O)NC(Cc1ccc(S(=O)(=O)O)cc1)C(=O)O` (stereo not given), the TGI in the assay on CCRF-CEM leukemia, in the assay with SK-MEL-5 melanoma, in the assay with OVCAR-5 ovarian, with MCF7 breast, with TK-10 renal and in the assay on MDA-N was above 100 µM each time. Also, the TGI with M14 melanoma, in the assay on NCI-H23 lung and with HL-60(TB) leukemia was above 100 µM each time.
As for `CC(=N\N)/C(C)=N/N=C(C)/C(C)=N/N=C(C)/C(C)=N/N`, the TGI in the assay with CCRF-CEM leukemia, with SK-MEL-5 melanoma, with OVCAR-5 ovarian, with MCF7 breast, in the assay on TK-10 renal and in the assay on MDA-N was above 100 µM each time. Moreover, the TGI with M14 melanoma, in the assay with NCI-H23 lung and with HL-60(TB) leukemia was above 100 µM throughout.
`N#C[C@H](c1nc2ccccc2s1)c1nc2ccccc2nc1Cl`: the TGI in the assay with CCRF-CEM leukemia was above 100 µM; in the assay with SK-MEL-5 melanoma, above 100 µM; in the assay with OVCAR-5 ovarian, 39 µM; with MCF7 breast it was 24.8 µM; with MDA-N, above 100 µM; in the assay on M14 melanoma, 34.1 µM. Moreover, the TGI in the assay with NCI-H23 lung was 32.3 µM; in the assay with HL-60(TB) leukemia, above 100 µM.
Consider `Cn1c(N/N=C/c2ccccc2)nc(-c2ccc([N+](=O)[O-])cc2)c(C#N)c1=O`, for which the TGI with CCRF-CEM leukemia, in the assay on SK-MEL-5 melanoma, in the assay with OVCAR-5 ovarian, in the assay on MCF7 breast, in the assay on TK-10 renal and with MDA-N was above 100 µM in each case. Further, the results for the TGI in the assay with M14 melanoma, with NCI-H23 lung and with HL-60(TB) leukemia were above 100 µM, above 100 µM and 48.3 µM, respectively.
For the molecule `Clc1ccc(OCc2nn3c(CCc4nnc5sc(COc6ccc(Cl)cc6)nn45)nnc3s2)cc1`, the TGI was above 100 µM in the assay on CCRF-CEM leukemia; 23.7 µM with SK-MEL-5 melanoma; above 100 µM in the assay on OVCAR-5 ovarian; 92.8 µM in the assay on MCF7 breast; 80.7 µM in the assay with TK-10 renal; above 100 µM in the assay on MDA-N. The TGI in the assay on M14 melanoma was above 100 µM; with NCI-H23 lung, 72.1 µM; in the assay on HL-60(TB) leukemia, 72 µM.
